Reference: US11078232B2, “Preparation and use of molecular site targeted and activated kinase inhibitor” (Yafei Shanghai Biology Medicine Science & Technology Co. …, priority 2017, dated 2021)

Legend:
[1] = target: T1, aspartic acid endopeptidase (Legumain) (Homo sapiens, UniProt Q99538); experiment: Enzymatic cleavage (digestion) efficiency of linkers; assay type: biochemical; details: linker cleaved by Legumain
T1 sequence (Q99538 18-323): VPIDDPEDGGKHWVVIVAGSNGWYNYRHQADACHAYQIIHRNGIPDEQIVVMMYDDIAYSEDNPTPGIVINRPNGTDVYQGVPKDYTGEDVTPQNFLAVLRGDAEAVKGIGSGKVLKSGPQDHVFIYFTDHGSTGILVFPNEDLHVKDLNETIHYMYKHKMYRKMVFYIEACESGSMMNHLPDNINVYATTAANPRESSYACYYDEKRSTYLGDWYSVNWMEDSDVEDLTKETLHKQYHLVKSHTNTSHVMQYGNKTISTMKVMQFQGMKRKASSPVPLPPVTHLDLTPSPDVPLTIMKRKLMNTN
Procedure: (§1) The specific aspartic acid endopeptidase (Legumain) enzyme substrate peptide was ligated to different types of carbohydrates, and the stability and enzymatic cleavage efficiency of the resulting linker were tested, and a strong activation was predicted.

[2] = Stability of carbohydrate-linked enzyme substrate peptide linkers; assay type: physicochemical; details: linker: carbohydrate linked to the enzyme substrate peptide
Procedure: as §1

[3] = tested on: D121 lung cancer cells; experiment: D121 lung cancer immunotherapy model; details: single agent; for Tumor inhibition rate/% (week 7): i.v. ⅙ MTD once a week for 4 weeks; for CD8: CD45 (%): tumor CD8+ T cells among CD45-positive cells, flow cytometry
Procedure: (1) D121 lung cancer cells purchased from ATCC were cultured in DMEM medium containing 10% fetal bovine serum at 37° C. and 5% CO2, and the cells were digested with EDTA trypsin according to routine use, and passed two to three times a week for placement.
(2) Animals: C57 BALB/C mice, 6-8 weeks old, female, weighing about 18-22 g, purchased from Shanghai SLAC Laboratory Animal Co., Ltd.
3) Immunization: Mice were intraperitoneally injected with 100 μL of 5×10^5 D121 lung cancer cells that died by repeated freeze-thaw cycles, and immunized 3 times with an interval of 2 weeks.
4) Cell seeding: Collect the tumor cells in logarithmic growth phase, adjust the D121 cell concentration to (1×10^7/ml) with DMEM basal medium, 0.1 ml of the cell suspension was inoculated to the right side of each mouse subcutaneously with a 1 ml syringe. […] Tumor volume was observed and measured, and the average tumor volume reached 100-200 mm^3 about 7 days after inoculation, that is, tumor cell-bearing mice were grouped and administered. The immunized group in Table 9 was immunized with D121 lung cancer cells, and the D121 dead tumor cell immunized group was injected with physiological saline as a control.
The immunosuppressive regulatory point protein Anti-PD-L1 antibody was injected twice a week. A total of two weeks.
6) Experimental observation: During the whole experiment, the use and observation of experimental animals were carried out in accordance with the regulations of AAALAC. The experimental animals were observed daily after inoculation of tumor cells, and their onset and death were recorded. During the routine experiment, all experimental animals were monitored and recorded for behavior, feeding, water intake, weight change, hair shine and other abnormalities.
(7) Analysis of tumor CD8+ T cells (T lymphocyte subsets). Tumor tissues were ground and single cancer cells were isolated by filtration using 40 μm Nylon cell strainer, lysed twice with blood cell lysis buffer for 20 min, washed twice with 1% BSA-PBS buffer, centrifuged, and resuspended, and then the cells were counted again. 1×10^5 cells were incubated with leukocyte co-antigen CD45-PE and CD8-FITC-labeled antibody for 1 hour at room temperature in the dark, and then analyzed the proportion of T lymphocyte antigen (CD8) in leukocyte common antigen (CD45)-positive cells by flow cytometry.

[4] = Solid stability, 60° C. for 10 days in the dark (HPLC); assay type: physicochemical; details: solid, 60° C., 10 days, dark; for Stability(%): content versus time 0
Procedure: The test was carried out by leaving it at 60° C. for 10 days in the dark. The ratio of the change in the content of the compound to the compound at time 0 was measured by HPLC, and the stability value (%) was calculated.

[5] = MTD (maximum tolerated dose) acute toxicity in mice; assay type: in vivo, mouse; details: mouse, in vivo, BALB/C mice, intravenous, observed 17 days; for MTD at 17 days: female
Excerpt: (§2) Test purpose: to investigate the acute toxicity of highly activated compounds by targeted site molecules of the invention by measuring the MTD (maximum tolerated dose) experiment in mice.
(§3) The injections of each drug and the control drug were uniformly dissolved using water for injection, and diluted to the corresponding dose with physiological saline during the test.
(§4) Methods and results: […] BALB/C mice, weighing 19-21 g, were randomly divided into 10 groups, with 10 mice in each group. […] A control test of the saline group and the adriamycin group injection (commercially available, Beijing Yue kang) was carried out, and the injection volume of each mouse was 0.2 ml. […] On the D3, D5, and D14, blood samples were taken for whole blood count.

[6] = tested on: BALB/C mouse; experiment: as above; assay type: in vivo; details: intravenous; for Number of deaths: 10 mice per group; for Death dose: observed 17 days
Excerpt: as §2, §3, §4

[7] = target: T2, aspartic endopeptidase (Homo sapiens, UniProt Q99538); experiment: Activation efficiency by aspartic endopeptidase (HPLC); assay type: biochemical; details: 1 mg/ml compound, enzyme 1 μmol/L, pH 6.0, 37° C., 2 hours; ratio of released product to original compound
T2 sequence (Q99538 18-323): T1 sequence (Q99538 18-323)
Procedure: The sample compound and a portion of the control compound (herein, all of the control compounds can be synthesized by a method similar to that described in Examples 1-3) were uniformly diluted 10-fold to 1 mg/ml with the enzyme-digesting solution. In this experiment, 1 mg/ml of the sample compound was added to the aspartic endopeptidase (1 μmol/L, pH 6.0) at 37° C. for 2 hours. After the reaction, the enzyme digest was able to release the enzyme-digested product. The decrease in the compound and the increase in the product were examined by HPLC to compare the enzyme activation efficiency (the ratio of the product released by the enzyme cleavage to the original compound).

[8] = tested on: CT26 tumor cells; experiment: CT26 immunotherapy model (Example 15); assay type: in vivo, mice; details: for Cure rate % / Number of cures: 10 in each group; for Tumor inhibition rate % (Day 42): IV ⅓ MTD once a week, 6 weeks; for Recurrence rate % (Week 7): cured mice re-inoculated with CT26 cells after 50 days
Procedure: (§5) 1) CT26 tumor cells were purchased from ATCC, and the cells were cultured using a 10% fetal bovine serum DMEM medium at 37° C., 5% CO2. The cells were passaged every 3 days and the cells were used within 15 generations.
(§6) 2) Tumor production: 10^6 live CT26 tumor cells were injected subcutaneously into the back of tumor-immunized […], and treatment was started when the tumor grew to about 0.3-0.4 cm. The tumor size (mm^3) of the mice was recorded and compared with the solvent control group. The tumor inhibition rate on day 42 was calculated in the solvent control group.
(§7) 3) Treatment process: IV injection is used, and the drug is used at a dose of ⅓ MTD once a week Immunosuppressive IV injection treatment once a week for a total of 6 weeks of treatment.
(§8) 4) The cure rate of 10 in each group was counted. After 50 days, the cured mice and wild groups were inoculated […] to detect recurrence.

[9] = Drug content in tumor tissue homogenate (HPLC); assay type: in vivo; details: 10 micromoles per kilogram intravenous, tumor-bearing mice, FIG. 4
Procedure: Intravenous injection of 10 micromoles per kilogram of the drug into tumor-bearing mice, surgically obtained tumor tissue homogenate, and the drug content was determined by the HPLC method.

[10] = tested on: CT26 tumor cells; experiment: CT26 treatment model (Example 17); assay type: in vivo, mice; details: CT26 model as in Example 15
Procedure: as §5, §6, §7, §8
The CT26 immunotherapy model was constructed as in Example 15, and the pharmacodynamic and immunotherapeutic effects of the compounds S4-S6, S9-S12 and S15-S18 in the CT26 treatment model were tested.

| Compound | Digestion efficiency [1] | stability [2] | Tumor inhibition rate/% (week 7) [3] | CD8: CD45 (%) [3] | Stability verdict (stable / unstable) [4] | Stability(%) [4] | MTD [5] | Number of deaths [6] | Death dose [6] | Activation efficiencies (%) [7] | Cure rate % [8] | Number of cures [8] | Tumor inhibition rate % (Day 42) [8] | drug distribution in the tumor [9] | MTD at 17 days [5] | Recurrence rate % (Week 7) [8] | CD8: CD45 (%) [10] | Number of animals cured [10] | Recurrence rate/% (at week 10) [10] | Tumor inhibition rate/% (at week 7) [10] |
| --- | --- | --- | --- | --- | --- | --- | --- | --- | --- | --- | --- | --- | --- | --- | --- | --- | --- | --- | --- | --- |
| CC(/N=C\[C@H](O)[C@@H](O)[C@H](O)[C@H](O)CO)C(=O)NC(C)C(=O)NC(CC(N)=O)C(=O)Nc1ccc(CO)cc1 (stereo partly drawn) | 25.5% | 89.6% |  |  |  |  |  |  |  |  |  |  |  |  |  |  |  |  |  |  |
| CC(/N=C/[C@H](O)[C@@H](O)[C@H](O)CO)C(=O)NC(C)C(=O)NC(CC(N)=O)C(=O)Nc1ccc(CO)cc1 (stereo partly drawn) | 60.4% | 78.9% |  |  |  |  |  |  |  |  |  |  |  |  |  |  |  |  |  |  |
| CC(/N=C(\CO)C(O)C(O)C(O)CO)C(=O)NC(C)C(=O)NC(CC(N)=O)C(=O)Nc1ccc(CO)cc1 (stereo not drawn) | 35.8% | 85.5% |  |  |  |  |  |  |  |  |  |  |  |  |  |  |  |  |  |  |
| C[C@H](N=C[C@H](O)[C@@H](O)[C@H](O)[C@H](O)CO)C(=O)N[C@@H](C)C(=O)N[C@@H](CC(N)=O)C(=O)Nc1ccc(COC(=O)N(C)CCNC(=O)c2cc(Oc3ccc(NC(=O)Nc4ccc(Cl)c(C(F)(F)F)c4)cc3)ccn2)cc1 [Compound C4, Glucose-AAN-PABC-Compound a, reference compound] |  |  | 40.8% | 10.7% | unstable | 85.7% | 80 mg/kg | 2 | 90 mg/kg | 46.7% | 0% | 0 | 36.6% |  |  |  |  |  |  |  |
| CC(NC(=O)C(C)NC(=O)[C@H](O)[C@H](O)[C@@H](O[C@@H]1O[C@H](CO)[C@H](O)[C@H](O)[C@H]1O)[C@H](O)CO)C(=O)NC(CC(N)=O)C(=O)Nc1ccc(COC(=O)N(C)CCNC(=O)c2cc(Oc3ccc(NC(=O)Nc4ccc(Cl)c(C(F)(F)F)c4)c(F)c3)ccn2)cc1 (stereo partly drawn) [Compound S2, Lacto-AAN-PABC-Compound b] |  |  | 52.4% | 10.5% | stable | 99.6% |  | 2 | 350 mg/kg | 88.4% | 50% | 5 | 92.4% | multiplied in the distribution of sorafenib in the tumor | 300 mg/kg | 0% |  |  |  |  |
| CC(NC(=O)C(C)NC(=O)[C@H](O)[C@H](O)[C@@H](O[C@@H]1O[C@H](CO)[C@H](O)[C@H](O)[C@H]1O)[C@H](O)CO)C(=O)NC(CC(N)=O)C(=O)Nc1ccc(COC(=O)N2CC(C)(C)c3ccc(NC(=O)c4cccnc4NCc4ccncc4)cc32)cc1 (stereo partly drawn) [Compound S6] |  |  | 73.4% | 14.4% |  |  |  | 1 | 290 mg/kg |  |  |  |  |  | 280 mg/kg |  | 14.9% | 1 | 0% | 66.7% |
| CC(NC(=O)C(NC(=O)[C@H](O)[C@H](O)[C@@H](O[C@@H]1O[C@H](CO)[C@H](O)[C@H](O)[C@H]1O)[C@H](O)CO)C(C)C)C(=O)NC(CC(N)=O)C(=O)Nc1ccc(COC(=O)N(C)CCNC(=O)c2cc(Oc3ccc(NC(=O)Nc4ccc(Cl)c(C(F)(F)F)c4)cc3)ccn2)cc1 (stereo partly drawn) [Compound S7, Lacto-VAN-PABC-compound a] |  |  |  |  | stable | 97.2% |  | 1 | 345 mg/kg | 90.5% | 70% | 7 | 84.7% |  | 300 mg/kg | 0% |  |  |  |  |
| CC(NC(=O)C(NC(=O)[C@H](O)[C@H](O)[C@@H](O[C@@H]1O[C@H](CO)[C@H](O)[C@H](O)[C@H]1O)[C@H](O)CO)C(C)C)C(=O)NC(CC(N)=O)C(=O)Nc1ccc(COC(=O)N(C)CCNC(=O)c2cc(Oc3ccc(NC(=O)Nc4ccc(Cl)c(C(F)(F)F)c4)c(F)c3)ccn2)cc1 (stereo partly drawn) [Compound S8, Lacto-VAN-PABC-compound b] |  |  |  |  | stable | 98.4% |  | 2 | 340 mg/kg | 93.7% | 70% | 7 | 73.4% |  | 280 mg/kg | 0% |  |  |  |  |
| CC(NC(=O)C(NC(=O)[C@H](O)[C@H](O)[C@@H](O[C@@H]1O[C@H](CO)[C@H](O)[C@H](O)[C@H]1O)[C@H](O)CO)C(C)O)C(=O)NC(CC(N)=O)C(=O)Nc1ccc(COC(=O)N(C)CCNC(=O)c2cc(Oc3ccc(NC(=O)Nc4ccc(Cl)c(C(F)(F)F)c4)cc3)ccn2)cc1 (stereo partly drawn) [Compound S13, Lacto-TAN-PABC-compound a] |  |  |  |  | stable | 98.6% |  | 2 | 360 mg/kg | 98.6% | 80% | 8 | 79.7% |  | 320 mg/kg | 0% |  |  |  |  |
| CC(NC(=O)C(NC(=O)[C@H](O)[C@H](O)[C@@H](O[C@@H]1O[C@H](CO)[C@H](O)[C@H](O)[C@H]1O)[C@H](O)CO)C(C)O)C(=O)NC(CC(N)=O)C(=O)Nc1ccc(COC(=O)N(C)CCNC(=O)c2cc(Oc3ccc(NC(=O)Nc4ccc(Cl)c(C(F)(F)F)c4)c(F)c3)ccn2)cc1 (stereo partly drawn) [Compound S14, Lacto-TAN-PABC-compound b] |  |  |  |  | stable | 97.8% |  | 1 | 350 mg/kg | 99.5% | 80% | 8 | 85.% |  | 310 mg/kg | 0% |  |  |  |  |
| Lacto-AAN-PABC-Paclitaxel [Compound C5, reference compound] |  |  |  |  | unstable | 89.3% |  |  |  | 59.3% |  |  |  |  |  |  |  |  |  |  |
| PEG-Ala-Ala-ASN-PABC | 68.6% | 97.6% |  |  |  |  |  |  |  |  |  |  |  |  |  |  |  |  |  |  |
